Assay results taken from ChEMBL document CHEMBL1201862, “PubChem BioAssay data set” (2004).
Calls of active or inactive are those of the source.

Experiments:
HEK293 [1] = assay: optical interference in Abeta FP readout, dose response, artefact control for IDE activator project, biochemical, fluorescence polarization (AID 588442); type: functional, cell-based; conditions: Homo sapiens
Insulin-degrading enzyme [2] = target: T1, Insulin-degrading enzyme (Homo sapiens, UniProt P14735); assay: activators of recombinant IDE enzyme, dose response, counter-screen for IDE activator project, biochemical, fluorescence polarization (AID 588681)
T1 sequence (P14735 whole entry): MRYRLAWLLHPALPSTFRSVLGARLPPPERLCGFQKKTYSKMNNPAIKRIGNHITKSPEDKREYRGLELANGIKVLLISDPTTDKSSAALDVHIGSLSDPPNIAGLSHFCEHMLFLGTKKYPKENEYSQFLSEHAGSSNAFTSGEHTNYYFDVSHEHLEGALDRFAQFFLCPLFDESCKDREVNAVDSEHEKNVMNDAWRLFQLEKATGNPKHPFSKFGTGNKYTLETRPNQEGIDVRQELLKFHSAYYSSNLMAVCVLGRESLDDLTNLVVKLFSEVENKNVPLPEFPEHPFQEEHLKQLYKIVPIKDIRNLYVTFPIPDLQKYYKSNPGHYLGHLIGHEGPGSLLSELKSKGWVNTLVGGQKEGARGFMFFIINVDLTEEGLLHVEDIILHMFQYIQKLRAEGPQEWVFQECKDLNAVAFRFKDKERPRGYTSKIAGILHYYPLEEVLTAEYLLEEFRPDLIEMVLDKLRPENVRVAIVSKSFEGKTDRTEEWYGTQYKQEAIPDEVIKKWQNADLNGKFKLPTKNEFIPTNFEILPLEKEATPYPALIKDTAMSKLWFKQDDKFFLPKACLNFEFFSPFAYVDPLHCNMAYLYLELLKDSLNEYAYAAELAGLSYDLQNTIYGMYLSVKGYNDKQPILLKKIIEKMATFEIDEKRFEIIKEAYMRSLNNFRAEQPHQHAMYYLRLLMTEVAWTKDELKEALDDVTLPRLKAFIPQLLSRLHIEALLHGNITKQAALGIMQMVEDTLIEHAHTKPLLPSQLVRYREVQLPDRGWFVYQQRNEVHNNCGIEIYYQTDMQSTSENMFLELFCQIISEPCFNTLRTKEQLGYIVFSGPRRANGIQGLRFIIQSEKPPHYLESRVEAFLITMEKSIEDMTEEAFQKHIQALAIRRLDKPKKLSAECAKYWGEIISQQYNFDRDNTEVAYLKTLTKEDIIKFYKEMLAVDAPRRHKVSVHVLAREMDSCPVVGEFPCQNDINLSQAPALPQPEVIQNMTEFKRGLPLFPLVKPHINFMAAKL

HEK293 [3] = assay: HEK cell cytotoxicity by LDH release, dose response, cytotoxicity control for IDE activator project, fluorescence, HEK cells (AID 588440); type: functional, cell-based; conditions: Homo sapiens;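 also: cytotoxicity by LDH release measuring loss of membrane integrity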
Insulin-degrading enzyme [4] = target: T1, Insulin-degrading enzyme; assay: activators of endogenous IDE in HEK cells, dose response, cell-based, fluorescence polarization (AID 588439); type: functional
[5] = target: T2, High affinity choline transporter 1 (Homo sapiens, UniProt Q9GZV3); assay: CHT inhibitors, dose response, cell-based, 5-point CRC, membrane potential dye (AID 504840); type: functional
T2 sequence (Q9GZV3 whole entry): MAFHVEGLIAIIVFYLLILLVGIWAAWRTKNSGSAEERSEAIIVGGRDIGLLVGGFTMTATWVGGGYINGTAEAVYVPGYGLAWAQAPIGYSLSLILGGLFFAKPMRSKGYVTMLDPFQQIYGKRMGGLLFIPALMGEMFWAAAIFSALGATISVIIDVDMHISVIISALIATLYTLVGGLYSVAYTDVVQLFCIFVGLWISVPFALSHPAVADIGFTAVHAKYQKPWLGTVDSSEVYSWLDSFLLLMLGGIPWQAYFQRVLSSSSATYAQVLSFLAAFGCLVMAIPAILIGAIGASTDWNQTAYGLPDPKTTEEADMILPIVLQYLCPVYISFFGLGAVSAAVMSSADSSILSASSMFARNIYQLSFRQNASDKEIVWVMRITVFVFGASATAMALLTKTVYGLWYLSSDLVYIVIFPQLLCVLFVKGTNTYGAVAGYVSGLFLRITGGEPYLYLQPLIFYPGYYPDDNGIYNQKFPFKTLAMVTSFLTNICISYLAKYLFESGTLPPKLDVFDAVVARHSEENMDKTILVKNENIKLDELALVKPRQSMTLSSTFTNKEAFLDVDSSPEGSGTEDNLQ

[6] = target: T2, High affinity choline transporter 1; assay: CHT inhibitors, dose response, cell-based, 10-point CRC, membrane potential dye (AID 588401); type: functional;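 also: membrane potential dye fluorescence of choline-evoked depolarization via CHT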
[7] = target: Protein disulfide-isomerase (Homo sapiens, UniProt P07237); assay: PDI inhibitors, insulin aggregation turbidity, dose response, biochemical, absorbance, cherry-picked samples (AID 602350); type: functional
Protein disulfide-isomerase, sequence (P07237 whole entry): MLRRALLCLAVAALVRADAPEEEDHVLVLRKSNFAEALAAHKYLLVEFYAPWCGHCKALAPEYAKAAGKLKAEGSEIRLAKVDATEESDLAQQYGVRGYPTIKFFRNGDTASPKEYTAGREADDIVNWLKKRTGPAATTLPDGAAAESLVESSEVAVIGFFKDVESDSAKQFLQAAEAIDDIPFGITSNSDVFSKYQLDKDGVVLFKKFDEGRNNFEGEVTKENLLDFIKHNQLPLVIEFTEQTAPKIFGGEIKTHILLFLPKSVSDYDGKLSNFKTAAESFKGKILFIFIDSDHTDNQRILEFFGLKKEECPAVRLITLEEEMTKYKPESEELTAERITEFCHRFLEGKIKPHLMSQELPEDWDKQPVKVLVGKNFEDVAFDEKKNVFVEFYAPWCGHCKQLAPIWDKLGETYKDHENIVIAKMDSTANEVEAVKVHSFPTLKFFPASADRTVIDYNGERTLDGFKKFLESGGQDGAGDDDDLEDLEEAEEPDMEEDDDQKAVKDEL

IC50 [5] | IC50 [6] | AC50 [7] | SMILES | EC50 (HEK293 [1]) | EC50 (Insulin-degrading enzyme [2]) | IC50 (HEK293 [3]) | EC50 (Insulin-degrading enzyme [4])
 |  |  | O=C(CN1C(=O)COc2ccc(S(=O)(=O)N3CCCC3)cc21)NCc1ccccn1 | > 54.7 µM (inactive) | > 54.7 µM (inactive) | > 89.2 µM (inactive) | > 54.7 µM (inactive)
 |  |  | CC(C)(O)C#Cc1ccccc1C(=O)NC(CC(N)=O)C(=O)O (stereo unspecified) | > 55.9 µM (inactive) | > 54.7 µM (inactive) | > 89.2 µM (inactive) | > 54.7 µM (inactive)
4.07 µM (active) | 4.28 µM (active) |  | CCCCN(CCCC)CCNC(=O)c1cn(CC)c2ccc(S(=O)(=O)N3CCc4ccccc4C3)cc2c1=O |  |  |  | 
 |  | 19.5 µM (active) | O=C(NC(Cc1ccc(O)cc1)C(=O)N=Nc1c(O)[nH]c2ccccc12)c1ccccc1 (stereo unspecified) |  |  |  | 
